In one test the target is Caspase-6 (Homo sapiens (Human), UniProt P55212). Description: Fluorometric enzymatic assay, active recombinant Caspase-6. The settings on record: 10-point titration 0.1 nM to 3.3 μM, 30-minute incubation at 37° C.; read-out: IC50 values (μM) Caspase-6. In kind it is biochemical. Here is the method:
(§1) . In brief, each compound was serially diluted for a final test concentration range of 0.1 nM to 3.3 μM (10-point titration). Each active recombinant Caspase (Active Recombinant Caspase Set IV™ (BioVision, Cat# K233-10-25)) was added to the respective wells of the 96-well High Efficiency™ plates (Molecular Devices, Cat#75-000-0005), followed by the addition of the diluted test compounds. DMSO (Final=1%) or Z-VAD-FMK (Caspase-Family Inhibitor, Z-VAD-FMK (BioVision, Cat#1010-100), Final concentration=20 uM) was added in the designated wells as a background control or positive inhibitor control respectively. Each dilution of the test compounds was tested in duplicates, whereas the DMSO or Z-VAD-FMK controls were tested in triplicates. The synthetic peptide substrate specific for each Caspase (BioVision) was then added to the respective wells, which when cleaved by the active caspase releases free AFC that can be quantified by fluorometry. After a 30-minute incubation at 37° C., the plates were read using the Flexstation 3™ with a 400 nm excitation filter and a 505 nm emission filter (cutoff at 495 nm). The inhibition efficiency and the IC50 values of the test compounds were then determined by comparing the fluorescence intensity (FI) of the test compounds with that of the DMSO control.
(§2) The SoftMax Pro Software™ (v5.2 rev C, Molecular Devices) was used for data analysis. The % Inhibition is calculated by: % Inhibition=[FI(DMSO)−FI(test sample)/FI(DMSO)]×100. The % Inhibition vs. Log(concentration) was plotted, and the curve was fitted using the 5-parameter fit of the software.

In another test the target is Caspase-8 (Homo sapiens (Human), UniProt Q14790). The test is described as follows: Fluorometric enzymatic assay, active recombinant Caspase-8. In kind it is biochemical. The note with it: 10-point titration 0.1 nM to 3.3 μM, 30-minute incubation at 37° C.; read-out: IC50 values (μM) Caspase-8. Here is the method: as §1, §2
In another test the target is Caspase-10 (Homo sapiens (Human), UniProt Q92851). Description: Fluorometric enzymatic assay, active recombinant Caspase-10. The note with it: read-out: IC50 values (μM) Caspase-10; 10-point titration 0.1 nM to 3.3 μM, 30-minute incubation at 37° C.
Chain of Caspase-10 (Q92851 220-415): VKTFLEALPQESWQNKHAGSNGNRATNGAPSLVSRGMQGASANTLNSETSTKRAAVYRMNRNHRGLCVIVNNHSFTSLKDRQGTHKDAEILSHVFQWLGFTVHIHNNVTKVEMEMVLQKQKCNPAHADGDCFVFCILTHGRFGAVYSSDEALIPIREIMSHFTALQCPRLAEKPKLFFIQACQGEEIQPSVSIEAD
Chain of Caspase-10 (Q92851 416-521): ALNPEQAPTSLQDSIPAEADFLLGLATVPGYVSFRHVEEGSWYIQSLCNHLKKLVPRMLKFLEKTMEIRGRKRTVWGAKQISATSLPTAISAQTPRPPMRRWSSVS
Test [1] addresses T1, Caspase-1 (Homo sapiens (Human), UniProt P29466). The test is described as follows: Caspase-1 Inhibitor Drug Screening Kit, fluorometric (AFC liberation). In kind it is biochemical. The settings on record: 30-minute incubation at 37° C.; approximations of the average values; read-out: Caspase enzymatic activity, IC50 (uM) Caspase 1.
Experimental: (§3) The level of inhibition of caspase-1, -3, -5, -7, -9 activity was determined by comparison of the relative fluorescence intensity in samples with or without the compound.
Test [2] concerns the target T2, Caspase-7 (Homo sapiens (Human), UniProt P55210). The test is described as follows: Caspase-7 Inhibitor Drug Screening Kit, fluorometric (AFC liberation). The settings on record: 30-minute incubation at 37° C.; approximations of the average values; read-out: Caspase enzymatic activity, IC50 (uM) Caspase 7. The test is classed as biochemical.
Experimental: as §3
Test [3] concerns the target T3, Caspase-3 (Homo sapiens (Human), UniProt P42574). Description: Caspase-3 Inhibitor Drug Screening Kit, fluorometric (AFC liberation). The test is classed as biochemical.
Target sequence in this assay (P42574 29-277): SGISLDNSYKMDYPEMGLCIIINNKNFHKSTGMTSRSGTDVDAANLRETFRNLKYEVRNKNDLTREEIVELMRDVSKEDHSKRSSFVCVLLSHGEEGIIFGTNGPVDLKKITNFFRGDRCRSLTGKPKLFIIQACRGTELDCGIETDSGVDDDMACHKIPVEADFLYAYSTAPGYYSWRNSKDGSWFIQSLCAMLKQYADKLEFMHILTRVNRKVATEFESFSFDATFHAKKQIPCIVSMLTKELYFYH
Experimental: as §3
The target in test [4] is T1, Caspase-1. Description: Fluorometric enzymatic assay, active recombinant Caspase-1.
Target sequence in this assay (P29466 whole entry, looked up): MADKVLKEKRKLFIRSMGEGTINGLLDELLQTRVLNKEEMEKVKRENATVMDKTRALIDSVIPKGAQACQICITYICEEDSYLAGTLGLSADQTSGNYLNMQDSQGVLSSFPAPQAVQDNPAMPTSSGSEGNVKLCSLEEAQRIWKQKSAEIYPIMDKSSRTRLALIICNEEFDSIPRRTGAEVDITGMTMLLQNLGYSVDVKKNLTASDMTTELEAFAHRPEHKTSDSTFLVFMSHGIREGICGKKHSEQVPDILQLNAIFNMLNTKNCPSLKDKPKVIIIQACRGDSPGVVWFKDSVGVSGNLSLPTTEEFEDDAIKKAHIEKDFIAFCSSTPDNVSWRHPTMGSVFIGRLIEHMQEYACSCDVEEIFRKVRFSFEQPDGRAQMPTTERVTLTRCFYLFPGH
Target sequence in this assay (P29466 whole entry, looked up): as above
Experimental: (§4) Each dilution of the test compounds was tested in duplicates, whereas the DMSO or Z-VAD-FMK controls were tested in triplicates. […] The inhibition efficiency and the IC50 values of the test compounds were then determined by comparing the fluorescence intensity (FI) of the test compounds with that of the DMSO control.
The next test addresses Caspase-2 (Homo sapiens (Human), UniProt P42575). Description: Fluorometric enzymatic assay, active recombinant Caspase-2. The test is classed as biochemical. The settings on record: 10-point titration 0.1 nM to 3.3 μM, 30-minute incubation at 37° C.; read-out: IC50 values (μM) Caspase-2. Here is the method: as §1, §2
Test [5] deals with T4, Caspase-5 (Homo sapiens (Human), UniProt P51878). The test is described as follows: Caspase-5 Inhibitor Drug Screening Kit, fluorometric (AFC liberation). The test is classed as biochemical. The note with it: 30-minute incubation at 37° C.; approximations of the average values; read-out: Caspase enzymatic activity, IC50 (uM) Caspase 5.
Target sequence in this assay (P51878 137-434): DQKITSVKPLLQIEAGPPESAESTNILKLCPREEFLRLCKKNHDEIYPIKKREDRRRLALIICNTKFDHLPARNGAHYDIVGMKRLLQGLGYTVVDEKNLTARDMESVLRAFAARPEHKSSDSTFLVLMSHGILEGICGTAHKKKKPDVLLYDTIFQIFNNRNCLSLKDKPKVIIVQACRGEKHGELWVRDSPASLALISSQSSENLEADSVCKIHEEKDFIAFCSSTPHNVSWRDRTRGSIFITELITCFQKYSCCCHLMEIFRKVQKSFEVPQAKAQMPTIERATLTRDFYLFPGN
Experimental: as §3
The target in test [6] is T3, Caspase-3. The test is described as follows: Fluorometric enzymatic assay, active recombinant Caspase-3.
Target sequence in this assay (P42574 29-175): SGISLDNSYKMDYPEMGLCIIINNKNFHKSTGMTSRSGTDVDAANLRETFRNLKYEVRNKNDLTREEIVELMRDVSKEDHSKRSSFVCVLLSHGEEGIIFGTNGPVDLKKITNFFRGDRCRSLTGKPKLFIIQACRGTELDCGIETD
Target sequence in this assay (P42574 176-277): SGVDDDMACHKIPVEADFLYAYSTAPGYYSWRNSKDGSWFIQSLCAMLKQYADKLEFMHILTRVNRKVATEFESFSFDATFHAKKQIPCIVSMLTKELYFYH
Experimental: as §4
Test [7] has as its target T2, Caspase-7. Description: Fluorometric enzymatic assay, active recombinant Caspase-7.
Target sequence in this assay (P55210 whole entry, looked up): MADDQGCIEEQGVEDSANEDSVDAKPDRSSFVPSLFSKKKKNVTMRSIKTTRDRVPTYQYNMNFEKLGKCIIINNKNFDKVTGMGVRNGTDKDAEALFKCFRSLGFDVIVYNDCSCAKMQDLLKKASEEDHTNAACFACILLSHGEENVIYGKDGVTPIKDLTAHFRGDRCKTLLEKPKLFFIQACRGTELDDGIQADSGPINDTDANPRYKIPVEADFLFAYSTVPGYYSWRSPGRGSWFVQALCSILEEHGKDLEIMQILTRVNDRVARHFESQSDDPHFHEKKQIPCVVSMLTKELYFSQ
Target sequence in this assay (P55210 whole entry, looked up): as above
Experimental: as §4
Test [8] concerns the target T4, Caspase-5. The test is described as follows: Fluorometric enzymatic assay, active recombinant Caspase-5. The test is classed as biochemical. The settings on record: 10-point titration 0.1 nM to 3.3 μM, 30-minute incubation at 37° C.; read-out: IC50 values (μM) Caspase-5. Here is the method: as §1, §2
Target sequence in this assay (P51878 whole entry, looked up): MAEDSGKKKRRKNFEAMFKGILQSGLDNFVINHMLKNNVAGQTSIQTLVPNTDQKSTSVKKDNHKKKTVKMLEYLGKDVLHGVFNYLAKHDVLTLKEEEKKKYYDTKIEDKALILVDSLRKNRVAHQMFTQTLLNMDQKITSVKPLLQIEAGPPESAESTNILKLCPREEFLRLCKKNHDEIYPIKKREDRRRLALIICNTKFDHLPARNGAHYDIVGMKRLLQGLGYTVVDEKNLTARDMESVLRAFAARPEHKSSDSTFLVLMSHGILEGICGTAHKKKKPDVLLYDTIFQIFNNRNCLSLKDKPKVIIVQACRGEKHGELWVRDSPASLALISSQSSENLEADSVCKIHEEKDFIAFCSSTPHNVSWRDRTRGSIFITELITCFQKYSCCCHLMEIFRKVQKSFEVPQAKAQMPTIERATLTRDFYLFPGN
Target sequence in this assay (P51878 whole entry, looked up): as above
The target of test [9] is T5, Caspase-9 (Homo sapiens (Human), UniProt P55211). Description: Caspase-9 Inhibitor Drug Screening Kit, fluorometric (AFC liberation). The test is classed as biochemical. The note with it: 30-minute incubation at 37° C.; approximations of the average values; read-out: Caspase enzymatic activity, IC50 (uM) Caspase 9.
Target sequence in this assay (P55211 whole entry): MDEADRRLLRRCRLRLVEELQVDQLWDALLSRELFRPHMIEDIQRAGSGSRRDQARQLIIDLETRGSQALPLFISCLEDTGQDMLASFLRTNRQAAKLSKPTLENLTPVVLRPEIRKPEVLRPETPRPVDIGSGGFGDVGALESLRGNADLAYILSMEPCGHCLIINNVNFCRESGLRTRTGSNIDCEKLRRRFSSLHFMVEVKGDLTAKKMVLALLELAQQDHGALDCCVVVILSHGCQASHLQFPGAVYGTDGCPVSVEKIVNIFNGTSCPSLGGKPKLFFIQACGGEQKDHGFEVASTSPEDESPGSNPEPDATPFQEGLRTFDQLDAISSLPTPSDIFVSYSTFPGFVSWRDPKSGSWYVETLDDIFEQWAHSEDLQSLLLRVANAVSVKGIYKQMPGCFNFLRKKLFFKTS
Experimental: as §3
The target of a further test is Caspase-4 (Homo sapiens (Human), UniProt P49662). Description: Fluorometric enzymatic assay, active recombinant Caspase-4.
Chain of Caspase-4 (P49662 81-270): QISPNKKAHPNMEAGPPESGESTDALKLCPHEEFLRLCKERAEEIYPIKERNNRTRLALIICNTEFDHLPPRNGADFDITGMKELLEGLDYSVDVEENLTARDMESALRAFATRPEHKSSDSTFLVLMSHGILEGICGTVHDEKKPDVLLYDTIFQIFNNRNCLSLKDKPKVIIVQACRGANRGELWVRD
Chain of Caspase-4 (P49662 290-377): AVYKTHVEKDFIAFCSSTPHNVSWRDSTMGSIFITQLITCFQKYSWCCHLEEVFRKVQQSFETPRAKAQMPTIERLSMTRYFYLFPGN
Test [10] deals with T5, Caspase-9. Description: Fluorometric enzymatic assay, active recombinant Caspase-9. The settings on record: read-out: IC50 values (μM) Caspase-9; 10-point titration 0.1 nM to 3.3 μM, 30-minute incubation at 37° C.
Experimental: as §4

These results are taken from patent publication US9045524B2, “Selective caspase inhibitors and uses thereof” (NOVAGENESIS FOUNDATION, priority 2009, dated 2015).

A value given as a limit tells only on which side of the number the result lay.

Chain of Caspase-6 (P55212 24-179): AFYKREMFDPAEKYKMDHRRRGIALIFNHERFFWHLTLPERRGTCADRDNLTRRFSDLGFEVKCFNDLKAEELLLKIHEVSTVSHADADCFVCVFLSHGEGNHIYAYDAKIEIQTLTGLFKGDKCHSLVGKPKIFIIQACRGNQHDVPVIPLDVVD
Chain of Caspase-6 (P55212 194-293): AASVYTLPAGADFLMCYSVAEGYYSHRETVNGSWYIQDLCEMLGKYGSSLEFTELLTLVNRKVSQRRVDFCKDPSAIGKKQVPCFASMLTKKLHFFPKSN
Chain of Caspase-2 (P42575 170-325): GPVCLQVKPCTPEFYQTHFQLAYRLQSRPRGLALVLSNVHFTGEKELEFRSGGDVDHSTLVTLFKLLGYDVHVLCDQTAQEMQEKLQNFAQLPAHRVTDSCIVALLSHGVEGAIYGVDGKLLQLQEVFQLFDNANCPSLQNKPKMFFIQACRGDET
Chain of Caspase-2 (P42575 348-452): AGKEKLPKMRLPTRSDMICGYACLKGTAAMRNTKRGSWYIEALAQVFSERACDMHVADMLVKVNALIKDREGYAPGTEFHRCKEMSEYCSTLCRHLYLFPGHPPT
Experimental for Caspase-10: as §4
Experimental for Caspase-4: as §4

Take `CC(C)[C@H](NC(=O)[C@@H](NC(=O)[C@H](CC(=O)O)NC(=O)OCc1ccccc1)c1ccccc1)C(=O)N[C@H](/C=C/S(C)(=O)=O)CC(=O)O` [Compound 53, Z-Asp-Phg-Val-Aspmethyl vinyl sulfone]: the IC50 (as a rule, the point on the concentration scale where inhibition reaches its midpoint) was more than 3.33 µM at Caspase-6; more than 3.33 µM at Caspase-8; more than 3.33 µM on Caspase-10; 2 µM at Caspase-1 [1]; 0.8 µM on Caspase-7 [2]; 0.06 µM on Caspase-3 [3] (30-minute incubation at 37° C., approximations of the average values, read-out: Caspase enzymatic activity, IC50 (uM) Caspase 3). The IC50 at Caspase-3 [3] (read-out: IC50 caspase-3) is 0.03 to 0.09 µM; on Caspase-1 [4] (read-out: IC50 values (μM) Caspase-1, 10-point titration 0.1 nM to 3.3 μM, 30-minute incubation at 37° C.), 2.1 µM; on Caspase-2, more than 3.33 µM; on Caspase-5 [5], more than 10 µM; at Caspase-3 [6] (read-out: IC50 values (μM) Caspase-3, 10-point titration 0.1 nM to 3.3 μM, 30-minute incubation at 37° C.), 0.09 µM; on Caspase-7 [7] (read-out: IC50 values (μM) Caspase-7, 10-point titration 0.1 nM to 3.3 μM, 30-minute incubation at 37° C.) it was 0.8 µM. Further, the IC50 was more than 3.33 µM at Caspase-5 [8]; more than 10 µM on Caspase-9 [9]; 2.8 µM at Caspase-4 (read-out: IC50 values (μM) Caspase-4, 10-point titration 0.1 nM to 3.3 μM, 30-minute incubation at 37° C.); more than 3.33 µM at Caspase-9 [10]. At Caspase-3 [3] (IC50 caspase-7 versus caspase-3), the “selectivity of Caspase-3 over Caspase-7 based on IC50 values” is “about 12 fold”. Further, at Caspase-1 [4] (FIG. 5), the “inhibitory activity towards Caspase-1” value was “inhibitory activity”. Further, on Caspase-3 [6] (FIG. 5), the “inhibitory activity towards Caspase-3” value is “high inhibitory activity”. The “inhibitory activity towards Caspase-7” value at Caspase-7 [7] (FIG. 5) was “high inhibitory activity”. In addition, the “inhibitory activity towards Caspase-4” value on Caspase-4 (FIG. 5) is recorded as “inhibitory activity”.
